What is called pIC50 is the IC50 on a negative log10 scale, so that one unit is a factor of ten. Lower therefore signals a high IC50.

This is an account of results in patent publication US20220324862A1, “PYRIDOPYRIMIDINONE COMPOUNDS” (Acerand Therapeutics (USA) Limited, priority 2021, published 2022).

The subject of this assay is NCI-H1975 cells. As to the kind of experiment: 3D cell proliferation assay. The class given is cell-based. Conditions: Homo sapiens, ultra low attachment plate, 96 hours, 3D CTG. The protocol:
This assay supports the molecular mode of action of compounds. Low IC50 values are indicative of high potency of the SOS1 inhibition. […] This supports the molecular mode of action of the SOS1 inhibitors as selectively targeting cancer cells dependent on receptor tyrosine kinase-RAS/SOS1-family protein function. Cell proliferation assays were performed in three-dimensional (3D) anchorage-independent conditions in 96 well ultra-low attachment plate with the following human cell lines:
NCI-H1975: human non-small cell lung cancer (NSCLC) with wild type KRAS and EGFR L858R/T790M mutation;
Cell lines were purchased from the American Type Culture Collection (ATCC), NCI, or European Collection of Authenticated Cell Cultures (ECACC). All cell lines were maintained in RPMI-1640 or DMEM with 10% heat inactivated fetal bovine serum.
Cells growing in log phase were detached with Gibco™ TrypLE™ Express Enzyme and plated in 96 well ultra low attachment plate at 15000 to 20000 cells/well in 100 μl of media. After overnight incubation at 37° C. and 5% CO2, the cells were treated with compounds (50 μL/well) at the final concentrations spanning 1 nM to 20 μM. Cells were incubated at 37° C., 5% CO2 and 95% humidity incubator for 96 hours. At the end of incubation, a 3D CTG reagent from Promega was added to each well according to vendors recommendation and mixed for 10 minutes in dark. The luminescence signals were determined using Biotek plate reader. The data was fitted using a sigmoidal curve analysis program (GraphPAD Prism) with variable hill slope.

pIC50: −log10 of the molar value.

For the compound `C#C[C@@H](Nc1nc(C)nc2cc(=O)n(C3CCOCC3)cc12)c1cccc(C(F)(F)F)c1C` [Compound 4, (R)-2-methyl-4-((1-(2-methyl-3-(trifluoromethyl)phenyl)prop-2-yn-1-yl)amino)-6-(tetrahydro-2H-pyran-4-yl)pyrido[4,3-d]pyrimidin-7(6H)-one], the negative logarithm of the IC50 (pIC50) is 6.30 to 7.00.

Take `C#C[C@@H](Nc1nc(C)nc2c1cc(C1(O)CCN(C(C)=O)CC1)c(=O)n2C)c1cccc(C(F)(F)F)c1C` [Compound 54, 6-(1-acetyl-4-hydroxypiperidin-4-yl)-2,8-dimethyl-4-{[(1R)-1-[2-methyl-3-(trifluoromethyl)phenyl]prop-2-yn-1-yl]amino}-7H,8H-pyrido[2,3-d]pyrimidin-7-one]: the pIC50 is greater than 7.00. The value for `C#C[C@@H](Nc1nc(C)nc2c1cc(C1(OC)CCN(C(C)=O)CC1)c(=O)n2C)c1cccc(C(F)(F)F)c1C` [Compound 55, 6-(1-acetyl-4-methoxypiperidin-4-yl)-2,8-dimethyl-4-{[(1R)-1-[2-methyl-3-(trifluoromethyl)phenyl]prop-2-yn-1-yl]amino}-7H,8H-pyrido[2,3-d]pyrimidin-7-one] was greater than 7.00. The value for `C#C[C@@H](Nc1nc(C)nc2c1cc(C1(F)CCN(C(C)=O)CC1)c(=O)n2C)c1cccc(C(F)(F)F)c1C` [Compound 56, 6-(1-acetyl-4-fluoropiperidin-4-yl)-2,8-dimethyl-4-{[(1R)-1-[2-methyl-3-(trifluoromethyl)phenyl]prop-2-yn-1-yl]amino}-7H,8H-pyrido[2,3-d]pyrimidin-7-one] was greater than 7.00; that for `C#C[C@@H](Nc1ncnc2c1cc(C1(NC(C)=O)CCOCC1)c(=O)n2C)c1cccc(C(F)(F)F)c1C` [Compound 58, (R)-N-(4-(8-methy-4-((1-(2-methyl-3-(trifluoromethyl)phenyl)prop-2-yn-1-yl}amino)-7-oxo-7,8-dihydropyrido[2,3-d]pyrimidin-6-yl)tetrahydro-2H-pyran-4-yl)acetamide] was greater than 7.00; that for `C#C[C@@H](Nc1ncnc2c1cc(C1(NC(C)=O)CCN(C(C)=O)CC1)c(=O)n2C)c1cccc(C(F)(F)F)c1C` [Compound 57, (R)-N-(1-acetyl-4-(8-methy-4-((1-(2-methyl-3-(trifluoromethyl)phenyl)prop-2-yn-1-yl)amino)-7-oxo-7,8-dihydropyrido[2,3-d]pyrimidin-6-yl)piperidin-4-yl)acetamide] was greater than 7.00. Consider `C#C[C@@H](Nc1ncnc2c1cc(C1(O)CCN(C(C)=O)CC1)c(=O)n2C)c1cccc(C(F)F)c1F` [Compound 46, 6-(1-acetyl-4-hydroxypiperidin-4-yl)-4-{[(1R)-1-[3-(difluoromethyl)-2-fluorophenyl]prop-2-yn-1-yl]amino}-8-methyl-7H,8H-pyrido[2,3-d]pyrimidin-7-one], for which the pIC50 was greater than 7.00. As for `C#C[C@@H](Nc1ncnc2c1cc(C1(O)CCN(C(C)=O)C1)c(=O)n2C)c1cccc(C(F)F)c1F` (stereo partly drawn) [Compound 43, 6-(1-acetyl-3-hydroxypyrrolidin-3-yl)-4-{[(1R)-1-[3-(difluoromethyl)-2-fluorophenyl]prop-2-yn-1-yl]amino}-8-methyl-7H,8H-pyrido[2,3-d]pyrimidin-7-one], the pIC50 was 6.30 to 7.00. The value for `C#C[C@@H](Nc1nc(C)nc2cc(=O)n(C3(C(F)F)CC3)cc12)c1cccc(C(F)(F)F)c1C` [Compound 9, (R)-6-(1-(difluoromethyl)cyclopropyl)-2-methyl-4-((1-(2-methyl-3-(trifluoromethyl)phenyl)prop-2-yn-1-yl)amino)pyrido[4,3-d]pyrimidin-7(6H)-one] was greater than 7.00; that for `C#C[C@@H](Nc1ncnc2c1cc(C1(OC)CCN(C(C)=O)C1)c(=O)n2C)c1cccc(C(F)F)c1F` (stereo partly drawn) [Compound 49, 6-(1-acetyl-3-methoxypyrrolidin-3-yl)-4-{[(1R)-1-[3-(difluoromethyl)-2-fluorophenyl]prop-2-yn-1-yl]amino}-8-methyl-7H,8H-pyrido[2,3-d]pyrimidin-7-one] was greater than 7.00. For the compound `C#C[C@@H](Nc1ncnc2c1cc(C1(OC)CCN(C(C)=O)CC1)c(=O)n2C)c1cccc(C(F)F)c1F` [Compound 48, (R)-6-(1-acetyl-4-methoxypiperidin-4-yl)-4-((1-(3-(difluoromethyl)-2-fluorophenyl)prop-2-yn-1-yl)amino)-8-methylpyrido[2,3-d]pyrimidin-7(8H)-one], the pIC50 is greater than 7.00.
